Target: α6β2* nicotinic acetylcholine receptor (α6 subunit) (Rattus norvegicus, UniProt P12390+P43143)
Sequence (P43143 31-493 limits assumed): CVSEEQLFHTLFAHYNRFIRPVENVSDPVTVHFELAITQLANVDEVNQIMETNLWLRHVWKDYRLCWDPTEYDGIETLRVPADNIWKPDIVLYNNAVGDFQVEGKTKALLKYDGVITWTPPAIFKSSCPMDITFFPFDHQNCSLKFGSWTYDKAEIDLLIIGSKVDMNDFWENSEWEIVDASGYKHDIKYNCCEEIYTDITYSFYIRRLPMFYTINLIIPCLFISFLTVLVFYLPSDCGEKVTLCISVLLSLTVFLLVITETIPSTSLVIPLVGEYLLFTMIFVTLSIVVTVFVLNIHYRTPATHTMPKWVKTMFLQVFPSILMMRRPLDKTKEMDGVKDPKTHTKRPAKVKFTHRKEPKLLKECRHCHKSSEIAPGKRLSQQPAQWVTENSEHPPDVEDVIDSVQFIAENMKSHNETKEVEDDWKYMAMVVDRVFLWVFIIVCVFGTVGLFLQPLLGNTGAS
Sequence (P12390 25-500 limits assumed): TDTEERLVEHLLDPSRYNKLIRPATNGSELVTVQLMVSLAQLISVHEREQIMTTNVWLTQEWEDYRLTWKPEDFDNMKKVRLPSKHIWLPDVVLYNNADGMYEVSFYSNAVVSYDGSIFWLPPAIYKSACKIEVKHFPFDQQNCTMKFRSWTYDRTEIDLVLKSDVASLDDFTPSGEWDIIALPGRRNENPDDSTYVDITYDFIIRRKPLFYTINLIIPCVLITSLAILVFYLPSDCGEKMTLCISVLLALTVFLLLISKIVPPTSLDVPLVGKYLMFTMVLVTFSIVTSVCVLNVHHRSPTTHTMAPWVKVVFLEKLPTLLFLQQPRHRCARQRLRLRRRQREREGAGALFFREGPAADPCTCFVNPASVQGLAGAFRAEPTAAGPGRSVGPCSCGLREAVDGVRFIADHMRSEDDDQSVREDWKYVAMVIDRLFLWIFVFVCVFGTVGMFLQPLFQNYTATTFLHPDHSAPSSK

With `CC1=CCCN(CCCCCCCCCCN2CCC=C(C)C2)C1` [r-bPiDI, 1,10-bis(3-methyl-5,6-dihydropyridin-1(2H)-yl)decane] the IC50 was 37.5 ± 18.7 nM.
